According to paper PMC5218480 (PLoS ONE, 2017):

Tested on: MV-4-11 cells
Experiment: Gene expression microarray analysis (Affymetrix PrimeView) and GSEA
Type: cell-based, human
Parameters: RFU PODN (11730768_x_at) / Fold change /veh PODN (11730768_x_at) / RFU LINC00158 (11744669_a_at) / Fold change /veh LINC00158 (11744669_a_at) / RFU DUSP10 (11751237_a_at) / Fold change /veh DUSP10 (11751237_a_at) / RFU ID3 (11757404_x_at) / Fold change /veh ID3 (11757404_x_at) / RFU PLEKHG5 (11737974_s_at) / Fold change /veh PLEKHG5 (11737974_s_at) / RFU LRRC4B (11730491_at) / Fold change /veh LRRC4B (11730491_at) / RFU GIMAP4 (11747438_a_at) / Fold change /veh GIMAP4 (11747438_a_at) / RFU KRT8 (11758183_x_at) / Fold change /veh KRT8 (11758183_x_at) / RFU CNN1 (11734310_a_at) / Fold change /veh CNN1 (11734310_a_at) / RFU VPS37D (11726825_at) / Fold change /veh VPS37D (11726825_at) / RFU C10orf10 (11716522_x_at) / Fold change /veh C10orf10 (11716522_x_at) / RFU KIR2DL2 /// KIR2DL4 /// KIR2DL5A /// KIR2DL5B /// KIR2DS1 /// KIR2DS2 /// KIR2DS3 /// KIR2DS4 /// KIR3DL3 /// KIR3DL3 /// KIR3DS1 (11738374_at) / Fold change /veh KIR2DL2 /// KIR2DL4 /// KIR2DL5A /// KIR2DL5B /// KIR2DS1 /// KIR2DS2 /// KIR2DS3 /// KIR2DS4 /// KIR3DL3 /// KIR3DL3 /// KIR3DS1 (11738374_at) / RFU C1QL1 (11718748_at) / Fold change /veh C1QL1 (11718748_at) / RFU TMPRSS4 (11747572_a_at) / Fold change /veh TMPRSS4 (11747572_a_at) / RFU HAMP (11756126_x_at) / Fold change /veh HAMP (11756126_x_at) / RFU RNFT2 (11725882_a_at) / Fold change /veh RNFT2 (11725882_a_at) / RFU NR4A2 (11747474_a_at) / Fold change /veh NR4A2 (11747474_a_at) / RFU ABCC12 (11746883_a_at) / Fold change /veh ABCC12 (11746883_a_at) / RFU TMEM136 (11760407_x_at) / Fold change /veh TMEM136 (11760407_x_at) / RFU CLDN22 /// WWC2 (11732394_at) / Fold change /veh CLDN22 /// WWC2 (11732394_at) / RFU HLA-DPB1 (11760878_x_at) / Fold change /veh HLA-DPB1 (11760878_x_at) / RFU SPINT1 (11716480_a_at) / Fold change /veh SPINT1 (11716480_a_at) / RFU GAP43 (11754022_s_at) / Fold change /veh GAP43 (11754022_s_at) / RFU A4GNT (11735810_at) / Fold change /veh A4GNT (11735810_at) / RFU PRB3 (11715151_x_at) / Fold change /veh PRB3 (11715151_x_at) / RFU TUBB4B (11761932_at) / Fold change /veh TUBB4B (11761932_at) / RFU CAPN14 (11732068_a_at) / Fold change /veh CAPN14 (11732068_a_at) / RFU TMCC2 (11721928_a_at) / Fold change /veh TMCC2 (11721928_a_at) / RFU IRGQ (11745062_a_at) / Fold change /veh IRGQ (11745062_a_at) / RFU FAM174B (11720279_a_at) / Fold change /veh FAM174B (11720279_a_at) / RFU TMPRSS4 (11748680_a_at) / Fold change /veh TMPRSS4 (11748680_a_at) / RFU FAM212B (11763350_a_at) / Fold change /veh FAM212B (11763350_a_at) / RFU PLEKHG5 (11743358_a_at) / Fold change /veh PLEKHG5 (11743358_a_at) / RFU ZSCAN30 (11745921_a_at) / Fold change /veh ZSCAN30 (11745921_a_at) / RFU CMKLR1 (11741424_a_at) / Fold change /veh CMKLR1 (11741424_a_at) / RFU LOC101060620 /// MAPK8IP1 (11723275_at) / Fold change /veh LOC101060620 /// MAPK8IP1 (11723275_at) / RFU SPTSSB (11747773_x_at) / Fold change /veh SPTSSB (11747773_x_at) / RFU PRSS12 (11739890_at) / Fold change /veh PRSS12 (11739890_at) / RFU BIN1 (11741810_x_at) / Fold change /veh BIN1 (11741810_x_at) / RFU WNT11 (11732464_a_at) / Fold change /veh WNT11 (11732464_a_at) / RFU C10orf10 (11716521_a_at) / Fold change /veh C10orf10 (11716521_a_at) / RFU C5orf56 (11738089_at) / Fold change /veh C5orf56 (11738089_at) / RFU CYB561 (11721691_x_at) / Fold change /veh CYB561 (11721691_x_at) / RFU ANKRD19P (11752326_a_at) / Fold change /veh ANKRD19P (11752326_a_at) / RFU OR2T12 /// OR2T33 /// OR2T8 (11738714_s_at) / Fold change /veh OR2T12 /// OR2T33 /// OR2T8 (11738714_s_at) / RFU VCAN (11748164_a_at) / Fold change /veh VCAN (11748164_a_at) / RFU JSRP1 (11732532_at) / Fold change /veh JSRP1 (11732532_at) / RFU KRTAP10-11 (11738290_x_at) / Fold change /veh KRTAP10-11 (11738290_x_at) / RFU MYO3A (11730013_a_at) / Fold change /veh MYO3A (11730013_a_at) / RFU EBF3 (11725865_a_at) / Fold change /veh EBF3 (11725865_a_at) / RFU CAMK2N1 (11719241_x_at) / Fold change /veh CAMK2N1 (11719241_x_at) / RFU C5orf56 (11738088_a_at) / Fold change /veh C5orf56 (11738088_a_at) / RFU OLFML3 (11715873_a_at) / Fold change /veh OLFML3 (11715873_a_at) / RFU LOC100653217 /// NTM (11731650_a_at) / Fold change /veh LOC100653217 /// NTM (11731650_a_at) / RFU MAPK11 (11762145_a_at) / Fold change /veh MAPK11 (11762145_a_at) / RFU FIZ1 (11724087_x_at) / Fold change /veh FIZ1 (11724087_x_at) / RFU OASL (11726364_x_at) / Fold change /veh OASL (11726364_x_at) / RFU SOX15 (11748057_x_at) / Fold change /veh SOX15 (11748057_x_at) / RFU CD79A (11719716_a_at) / Fold change /veh CD79A (11719716_a_at) / RFU HIST1H1D (11736915_at) / Fold change /veh HIST1H1D (11736915_at) / RFU CASKIN2 (11723855_a_at) / Fold change /veh CASKIN2 (11723855_a_at) / RFU LOC730098 (11760151_x_at) / Fold change /veh LOC730098 (11760151_x_at) / RFU OR4N2 (11742367_at) / Fold change /veh OR4N2 (11742367_at) / RFU PRRT2 (11749266_a_at) / Fold change /veh PRRT2 (11749266_a_at) / RFU SNX32 (11753110_a_at) / Fold change /veh SNX32 (11753110_a_at) / RFU CDHR5 (11726645_a_at) / Fold change /veh CDHR5 (11726645_a_at) / RFU RCAN1 (11760418_a_at) / Fold change /veh RCAN1 (11760418_a_at) / RFU FAM167A (11723789_a_at) / Fold change /veh FAM167A (11723789_a_at) / RFU FAM26E (11764081_at) / Fold change /veh FAM26E (11764081_at) / RFU ISYNA1 (11749810_s_at) / Fold change /veh ISYNA1 (11749810_s_at) / RFU ACY1 (11761880_at) / Fold change /veh ACY1 (11761880_at) / RFU 11764098_at / Fold change /veh 11764098_at / RFU SAMD14 (11745864_x_at) / Fold change /veh SAMD14 (11745864_x_at) / RFU NPB (11741838_a_at) / Fold change /veh NPB (11741838_a_at) / RFU TMPRSS6 (11731388_a_at) / Fold change /veh TMPRSS6 (11731388_a_at) / RFU KRTAP10-2 (11738614_at) / Fold change /veh KRTAP10-2 (11738614_at) / RFU ARHGAP8 /// PRR5-ARHGAP8 (11727945_x_at) / Fold change /veh ARHGAP8 /// PRR5-ARHGAP8 (11727945_x_at) / RFU KRTAP5-7 /// NADSYN1 (11734609_at) / Fold change /veh KRTAP5-7 /// NADSYN1 (11734609_at) / RFU RASL12 (11751679_a_at) / Fold change /veh RASL12 (11751679_a_at) / RFU CDKN2B (11736163_a_at) / Fold change /veh CDKN2B (11736163_a_at) / RFU PRF1 (11729649_at) / Fold change /veh PRF1 (11729649_at) / RFU, ZNF638 /// ZNF638-IT1 / Fold change vs veh, ZNF638 /// ZNF638-IT1 / RFU, PANK3 / Fold change vs veh, PANK3 / RFU, SH3YL1 / Fold change vs veh, SH3YL1 / RFU, ZEB2 / Fold change vs veh, ZEB2 / RFU, NRIP1 / Fold change vs veh, NRIP1 / RFU, PTTG1IP / Fold change vs veh, PTTG1IP / RFU, CAPN2 / Fold change vs veh, CAPN2 / RFU, MED14 / Fold change vs veh, MED14 / RFU, SNORA58 / Fold change vs veh, SNORA58 / RFU, C1orf63 / Fold change vs veh, C1orf63 / RFU, LRRFIP1 / Fold change vs veh, LRRFIP1 / RFU, NDUFAF7 / Fold change vs veh, NDUFAF7 / RFU, SLC12A2 / Fold change vs veh, SLC12A2 / RFU, IBTK / Fold change vs veh, IBTK / RFU, ESF1 / Fold change vs veh, ESF1 / Fold change vs veh, TMEM50B / RFU, TAOK1 / Fold change vs veh, TAOK1 / RFU, ACBD3 / Fold change vs veh, ACBD3 / RFU, TMA16 / Fold change vs veh, TMA16 / RFU, RWDD3 / Fold change vs veh, RWDD3 / RFU, BCAT1 / Fold change vs veh, BCAT1 / RFU, EDEM3 / Fold change vs veh, EDEM3 / RFU, TMEM33 / Fold change vs veh, TMEM33 / RFU, WDR75 / Fold change vs veh, WDR75 / RFU, AHCTF1 / Fold change vs veh, AHCTF1 / RFU, TFRC / Fold change vs veh, TFRC / RFU, ZDHHC17 / Fold change vs veh, ZDHHC17 / RFU, NOM1 / Fold change vs veh, NOM1 / RFU, ARL8B / Fold change vs veh, ARL8B / RFU, ZBTB11 / Fold change vs veh, ZBTB11 / RFU, TAMM41 / Fold change vs veh, TAMM41 / RFU, KIAA1704 /// LOC100996395 / Fold change vs veh, KIAA1704 /// LOC100996395 / RFU, ING1 / Fold change vs veh, ING1 / RFU, TRMT61B / Fold change vs veh, TRMT61B / RFU, FUBP3 / Fold change vs veh, FUBP3 / RFU, TP53 / Fold change vs veh, TP53 / RFU, TNKS2 / Fold change vs veh, TNKS2 / RFU, ZFP14 / Fold change vs veh, ZFP14 / RFU, ACTR2 / Fold change vs veh, ACTR2 / RFU, PPP3R1 / Fold change vs veh, PPP3R1 / RFU, PIK3R1 / Fold change vs veh, PIK3R1 / RFU, HNRNPA1 / Fold change vs veh, HNRNPA1 / RFU, RNF170 / Fold change vs veh, RNF170 / RFU, ZNF28 / Fold change vs veh, ZNF28 / RFU, RNGTT / Fold change vs veh, RNGTT / RFU, OGT / Fold change vs veh, OGT / RFU, BRD1 / Fold change vs veh, BRD1 / RFU, MARS / Fold change vs veh, MARS / RFU, ZNF655 / Fold change vs veh, ZNF655 / RFU, FAHD1 / Fold change vs veh, FAHD1 / RFU, BDP1 / Fold change vs veh, BDP1 / RFU, LRRCC1 / Fold change vs veh, LRRCC1 / RFU, ARID1A / Fold change vs veh, ARID1A / RFU, ZNF146 / Fold change vs veh, ZNF146 / RFU, ZNF330 / Fold change vs veh, ZNF330 / RFU, GPN3 / Fold change vs veh, GPN3 / RFU, C9orf123 / Fold change vs veh, C9orf123 / RFU, N4BP2L2 / Fold change vs veh, N4BP2L2 / RFU, ARFIP1 / Fold change vs veh, ARFIP1 / RFU, FAM179B / Fold change vs veh, FAM179B / RFU, BCL10 / Fold change vs veh, BCL10 / RFU, UHRF1BP1L / Fold change vs veh, UHRF1BP1L / RFU, BET1 / Fold change vs veh, BET1 / RFU, CNOT2 / Fold change vs veh, CNOT2 / RFU, ZNF268 / Fold change vs veh, ZNF268 / Fold change vs veh, ZNF507 / RFU, DGCR2 / Fold change vs veh, DGCR2 / RFU, WDSUB1 / Fold change vs veh, WDSUB1 / Fold change vs veh, HSP90B1 /// MIR3652 / RFU, ADSS / Fold change vs veh, ADSS / RFU, GK / Fold change vs veh, GK / RFU, ZNF148 / Fold change vs veh, ZNF148 / RFU, TAF9 / Fold change vs veh, TAF9 / RFU, SLC1A5 / Fold change vs veh, SLC1A5 / RFU, SLMO2 / Fold change vs veh, SLMO2 / RFU, ABCC4 / Fold change vs veh, ABCC4 / RFU, LOC101060439 /// RAP1B / Fold change vs veh, LOC101060439 /// RAP1B / RFU, RFX7 / Fold change vs veh, RFX7 / RFU, GTPBP10 / Fold change vs veh, GTPBP10 / RFU, CNEP1R1 / Fold change vs veh, CNEP1R1 / RFU, BIVM-ERCC5 /// ERCC5 / Fold change vs veh, BIVM-ERCC5 /// ERCC5 / RFU, ILF3 / Fold change vs veh, ILF3 / RFU 11762660_at / Fold change /veh 11762660_at / RFU VCAN (11757783_s_at) / Fold change /veh VCAN (11757783_s_at) / RFU DDX43 (11728927_at) / Fold change /veh DDX43 (11728927_at) / RFU KRT8 (11758188_x_at) / Fold change /veh KRT8 (11758188_x_at) / RFU NKD1 (11759106_at) / Fold change /veh NKD1 (11759106_at) / RFU SRD5A1 (11742802_a_at) / Fold change /veh SRD5A1 (11742802_a_at) / RFU TPSAB1 /// TPSB2 (11721975_s_at) / Fold change /veh TPSAB1 /// TPSB2 (11721975_s_at) / RFU GSTM3 (11746129_a_at) / Fold change /veh GSTM3 (11746129_a_at) / RFU IL23R (11737362_x_at) / Fold change /veh IL23R (11737362_x_at) / RFU TMEM51 (11727254_a_at) / Fold change /veh TMEM51 (11727254_a_at) / RFU PIWIL2 (11732686_x_at) / Fold change /veh PIWIL2 (11732686_x_at) / RFU ORM1 (11744905_x_at) / Fold change /veh ORM1 (11744905_x_at) / RFU CCDC152 (11743942_at) / Fold change /veh CCDC152 (11743942_at) / RFU ECM1 (11717891_a_at) / Fold change /veh ECM1 (11717891_a_at) / RFU IL23R (11748794_a_at) / Fold change /veh IL23R (11748794_a_at) / RFU TNFAIP8L3 (11732012_x_at) / Fold change /veh TNFAIP8L3 (11732012_x_at) / RFU MBOAT4 (11741988_at) / Fold change /veh MBOAT4 (11741988_at) / RFU 11764193_at / Fold change /veh 11764193_at / RFU TMEM53 (11763286_at) / Fold change /veh TMEM53 (11763286_at) / RFU MAGEB2 (11727129_at) / Fold change /veh MAGEB2 (11727129_at) / RFU TMEM200A (11744735_a_at) / Fold change /veh TMEM200A (11744735_a_at) / RFU CCDC152 (11751479_a_at) / Fold change /veh CCDC152 (11751479_a_at) / RFU FAM211A (11726209_a_at) / Fold change /veh FAM211A (11726209_a_at) / RFU RGS16 (11746705_a_at) / Fold change /veh RGS16 (11746705_a_at) / RFU VCAN (11755009_s_at) / Fold change /veh VCAN (11755009_s_at) / RFU RHOB (11743442_s_at) / Fold change /veh RHOB (11743442_s_at) / RFU RGS16 (11720943_a_at) / Fold change /veh RGS16 (11720943_a_at) / RFU RGS16 (11720944_at) / Fold change /veh RGS16 (11720944_at) / RFU, VPS4B / Fold change vs veh, VPS4B / RFU, CREB1 / Fold change vs veh, CREB1 / RFU, DNAJC13 / Fold change vs veh, DNAJC13 / RFU, GNAQ / Fold change vs veh, GNAQ / RFU, CDK5R1 / Fold change vs veh, CDK5R1 / RFU, ZRANB3 / Fold change vs veh, ZRANB3 / RFU, CUL4A / Fold change vs veh, CUL4A / RFU, CCNY / Fold change vs veh, CCNY / RFU, UFL1 / Fold change vs veh, UFL1 / RFU, COG3 / Fold change vs veh, COG3 / RFU, DIAPH2 / Fold change vs veh, DIAPH2 / RFU, SKA2 / Fold change vs veh, SKA2 / RFU, AFF3 / Fold change vs veh, AFF3 / RFU, LMF1 / Fold change vs veh, LMF1 / RFU, IPO11 / Fold change vs veh, IPO11 / RFU, DFFB / Fold change vs veh, DFFB / RFU, FOXP1 / Fold change vs veh, FOXP1 / RFU, CARD8 / Fold change vs veh, CARD8 / RFU, STRN3 / Fold change vs veh, STRN3 / RFU, ADK / Fold change vs veh, ADK / RFU, RASSF2 / Fold change vs veh, RASSF2 / RFU, WIPF1 / Fold change vs veh, WIPF1 / RFU, LARP1B / Fold change vs veh, LARP1B / RFU, RASA1 / Fold change vs veh, RASA1 / RFU, RB1 / Fold change vs veh, RB1 / RFU, PPFIA1 / Fold change vs veh, PPFIA1 / RFU, MAT2A / Fold change vs veh, MAT2A / RFU, CCT5 / Fold change vs veh, CCT5 / RFU, WDR92 / Fold change vs veh, WDR92 / RFU, CUX1 / Fold change vs veh, CUX1 / RFU, TTC7A / Fold change vs veh, TTC7A / RFU, TMEM135 / Fold change vs veh, TMEM135 / RFU, DEPTOR / Fold change vs veh, DEPTOR / RFU, CPM / Fold change vs veh, CPM / RFU, DNAJB6 / Fold change vs veh, DNAJB6 / RFU, CACNA2D3 / Fold change vs veh, CACNA2D3 / RFU, DTX4 / Fold change vs veh, DTX4 / RFU, TFCP2 / Fold change vs veh, TFCP2 / RFU, GMCL1 /// GMCL1P1 / Fold change vs veh, GMCL1 /// GMCL1P1 / RFU, AEBP2 / Fold change vs veh, AEBP2 / RFU, SNHG1 /// SNORD22 /// SNORD25 /// SNORD26 /// SNORD27 /// SNORD28 /// SNORD29 /// SNORD31 / Fold change vs veh, SNHG1 /// SNORD22 /// SNORD25 /// SNORD26 /// SNORD27 /// SNORD28 /// SNORD29 /// SNORD31 / Fold change (Aza/veh), C12orf56 (ProbeSet 11735607_a_at) / Fold change (ACY-1035/veh), C12orf56 (ProbeSet 11735607_a_at) / Fold change (Aza/veh), FGFR1OP (ProbeSet 11751329_s_at) / Fold change (ACY-1035/veh), FGFR1OP (ProbeSet 11751329_s_at) / Fold change (Aza/veh), VPS36 (ProbeSet 11739960_a_at) / Fold change (ACY-1035/veh), VPS36 (ProbeSet 11739960_a_at) / RFU SYPL1 (11715823_x_at) / Fold change /veh SYPL1 (11715823_x_at) / RFU IGFBP7 (11715501_s_at) / Fold change /veh IGFBP7 (11715501_s_at) / RFU REEP3 (11722064_at) / Fold change /veh REEP3 (11722064_at) / RFU IGLL1 (11728026_x_at) / Fold change /veh IGLL1 (11728026_x_at): dose or concentration left out as unconfirmed
Conditions: MV-4-11 cells, 48 hours

Nc1ccc(-c2cccs2)cc1NC(=O)c1ccc2c(c1)cc(C1CC1)n2CCN1CCOCC1 [ACY-1035]
Fold change /veh DDX43 (11728927_at): 1.03
